Patent US9242993B2, “Morpholino substituted bicyclic pyrimidine urea or carbamate derivatives as mTOR inhibitors” (CELLZOME LIMITED, priority 2011, dated 2016)

Assays:
[1] = target: DNA-dependent protein kinase (DNA-PK) (Homo sapiens, UniProt P78527); experiment: biochemical
mTOR = mTOR (Homo sapiens, UniProt P42345); experiment: biochemical
[2] = system: S6RP serine-240/244 phosphorylation; experiment: In vitro phospho-S6 cellular assay; format: cell-based; conditions: Homo sapiens; HEK293T/17 cells, 2 hours; read-out: pS6 inhibition value (IC50), activity level
Method in brief: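 HEK293T/17 cells (40,000/well for pS6RP, 80,000/well for pAkt) in DMEM, 2% FCS treated 2 h at 37 °C with 8 compound concentrations (0.1% DMSO). Lysates assayed by MesoScale sandwich electrochemiluminescence for pS6RP Ser240/244 or pAkt Ser473. Curves fitted by sigmoidal variable-slope regression.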

[3] = system: IFNγ release in whole blood; experiment: In vitro human whole blood assay (IFNγ release); format: cell-based; conditions: αCD3/αCD28 and IL-2 stimulation, 18 hours, read-out: WB inhibition value (pIC50) (converted)
Experimental: This assay measures IFNγ release in whole blood after αCD3/αCD28 and IL-2 treatment. The whole blood contains circulating T lymphocytes; αCD3/αCD28 stimulation mimics antigen receptor signalling, resulting in epigenetic changes to the IFNG gene locus, such that when IL-2 is added, IFNγ is produced.
Human whole blood, with Na-heparin as the anticoagulant, is obtained from Clinical Trials Laboratory Services. Blood is diluted 1.4 times with RPMI 1640 (Lonza, BE12-167F) and 175 μl/well is distributed in a low evaporation 96-well plates (Falcon, BD Labware, 353072). Blood is treated with 10 concentrations of test compounds or DMSO alone for controls (final DMSO concentration 0.2%) and incubated at 37° C. for 1 hour. Blood is then stimulated with 1 μg/ml αCD3 (R&D Systems, MAB100), 1 μg/ml αCD28 (BD Pharmingen, 555725) and IL-2 at 10 ng/ml (Peprotech, 200-02). Blood is then left to incubate at 37° C. for 18 hours. After, plates are spun at 250 g for 5 minutes to pellet blood cells and 25 μl of plasma is transferred to a MesoScale plate coated with an antibody to IFNγ (MesoScale Discovery K151AEC-2) containing 25 μl/well MesoScale Discovery Blocking Solution-2. Plates have been blocked by incubating with 25 μl/well MesoScale Discovery Blocking Solution-2 for 30 minutes at room temperature. After the transfer of sera to the MSD plate, the IFNγ protein is captured on the coated antibody by incubation at room temperature for 2 hour with gentle shaking. After the capture step the plate is washed three times with 150 μl/well of 1×PBS-Tween wash buffer and 25 μl/well detection antibody conjugated with a Sulfo-Tag is added and incubated for 2 hours at room temperature with gentle shaking. Subsequently the antibody solution is removed and the plate is washed 3 times with 150 μl/well 1×PBS-Tween wash buffer and 150 μl/well MesoScale Discovery Read buffer is added. The plates are analysed on a MSD 2400 Plate Reader (MesoScale Discovery). Data analysis is performed using nonlinear regression for a sigmoidal dose-response with a variable slope.

Chain of DNA-dependent protein kinase (DNA-PK) (P78527 whole entry): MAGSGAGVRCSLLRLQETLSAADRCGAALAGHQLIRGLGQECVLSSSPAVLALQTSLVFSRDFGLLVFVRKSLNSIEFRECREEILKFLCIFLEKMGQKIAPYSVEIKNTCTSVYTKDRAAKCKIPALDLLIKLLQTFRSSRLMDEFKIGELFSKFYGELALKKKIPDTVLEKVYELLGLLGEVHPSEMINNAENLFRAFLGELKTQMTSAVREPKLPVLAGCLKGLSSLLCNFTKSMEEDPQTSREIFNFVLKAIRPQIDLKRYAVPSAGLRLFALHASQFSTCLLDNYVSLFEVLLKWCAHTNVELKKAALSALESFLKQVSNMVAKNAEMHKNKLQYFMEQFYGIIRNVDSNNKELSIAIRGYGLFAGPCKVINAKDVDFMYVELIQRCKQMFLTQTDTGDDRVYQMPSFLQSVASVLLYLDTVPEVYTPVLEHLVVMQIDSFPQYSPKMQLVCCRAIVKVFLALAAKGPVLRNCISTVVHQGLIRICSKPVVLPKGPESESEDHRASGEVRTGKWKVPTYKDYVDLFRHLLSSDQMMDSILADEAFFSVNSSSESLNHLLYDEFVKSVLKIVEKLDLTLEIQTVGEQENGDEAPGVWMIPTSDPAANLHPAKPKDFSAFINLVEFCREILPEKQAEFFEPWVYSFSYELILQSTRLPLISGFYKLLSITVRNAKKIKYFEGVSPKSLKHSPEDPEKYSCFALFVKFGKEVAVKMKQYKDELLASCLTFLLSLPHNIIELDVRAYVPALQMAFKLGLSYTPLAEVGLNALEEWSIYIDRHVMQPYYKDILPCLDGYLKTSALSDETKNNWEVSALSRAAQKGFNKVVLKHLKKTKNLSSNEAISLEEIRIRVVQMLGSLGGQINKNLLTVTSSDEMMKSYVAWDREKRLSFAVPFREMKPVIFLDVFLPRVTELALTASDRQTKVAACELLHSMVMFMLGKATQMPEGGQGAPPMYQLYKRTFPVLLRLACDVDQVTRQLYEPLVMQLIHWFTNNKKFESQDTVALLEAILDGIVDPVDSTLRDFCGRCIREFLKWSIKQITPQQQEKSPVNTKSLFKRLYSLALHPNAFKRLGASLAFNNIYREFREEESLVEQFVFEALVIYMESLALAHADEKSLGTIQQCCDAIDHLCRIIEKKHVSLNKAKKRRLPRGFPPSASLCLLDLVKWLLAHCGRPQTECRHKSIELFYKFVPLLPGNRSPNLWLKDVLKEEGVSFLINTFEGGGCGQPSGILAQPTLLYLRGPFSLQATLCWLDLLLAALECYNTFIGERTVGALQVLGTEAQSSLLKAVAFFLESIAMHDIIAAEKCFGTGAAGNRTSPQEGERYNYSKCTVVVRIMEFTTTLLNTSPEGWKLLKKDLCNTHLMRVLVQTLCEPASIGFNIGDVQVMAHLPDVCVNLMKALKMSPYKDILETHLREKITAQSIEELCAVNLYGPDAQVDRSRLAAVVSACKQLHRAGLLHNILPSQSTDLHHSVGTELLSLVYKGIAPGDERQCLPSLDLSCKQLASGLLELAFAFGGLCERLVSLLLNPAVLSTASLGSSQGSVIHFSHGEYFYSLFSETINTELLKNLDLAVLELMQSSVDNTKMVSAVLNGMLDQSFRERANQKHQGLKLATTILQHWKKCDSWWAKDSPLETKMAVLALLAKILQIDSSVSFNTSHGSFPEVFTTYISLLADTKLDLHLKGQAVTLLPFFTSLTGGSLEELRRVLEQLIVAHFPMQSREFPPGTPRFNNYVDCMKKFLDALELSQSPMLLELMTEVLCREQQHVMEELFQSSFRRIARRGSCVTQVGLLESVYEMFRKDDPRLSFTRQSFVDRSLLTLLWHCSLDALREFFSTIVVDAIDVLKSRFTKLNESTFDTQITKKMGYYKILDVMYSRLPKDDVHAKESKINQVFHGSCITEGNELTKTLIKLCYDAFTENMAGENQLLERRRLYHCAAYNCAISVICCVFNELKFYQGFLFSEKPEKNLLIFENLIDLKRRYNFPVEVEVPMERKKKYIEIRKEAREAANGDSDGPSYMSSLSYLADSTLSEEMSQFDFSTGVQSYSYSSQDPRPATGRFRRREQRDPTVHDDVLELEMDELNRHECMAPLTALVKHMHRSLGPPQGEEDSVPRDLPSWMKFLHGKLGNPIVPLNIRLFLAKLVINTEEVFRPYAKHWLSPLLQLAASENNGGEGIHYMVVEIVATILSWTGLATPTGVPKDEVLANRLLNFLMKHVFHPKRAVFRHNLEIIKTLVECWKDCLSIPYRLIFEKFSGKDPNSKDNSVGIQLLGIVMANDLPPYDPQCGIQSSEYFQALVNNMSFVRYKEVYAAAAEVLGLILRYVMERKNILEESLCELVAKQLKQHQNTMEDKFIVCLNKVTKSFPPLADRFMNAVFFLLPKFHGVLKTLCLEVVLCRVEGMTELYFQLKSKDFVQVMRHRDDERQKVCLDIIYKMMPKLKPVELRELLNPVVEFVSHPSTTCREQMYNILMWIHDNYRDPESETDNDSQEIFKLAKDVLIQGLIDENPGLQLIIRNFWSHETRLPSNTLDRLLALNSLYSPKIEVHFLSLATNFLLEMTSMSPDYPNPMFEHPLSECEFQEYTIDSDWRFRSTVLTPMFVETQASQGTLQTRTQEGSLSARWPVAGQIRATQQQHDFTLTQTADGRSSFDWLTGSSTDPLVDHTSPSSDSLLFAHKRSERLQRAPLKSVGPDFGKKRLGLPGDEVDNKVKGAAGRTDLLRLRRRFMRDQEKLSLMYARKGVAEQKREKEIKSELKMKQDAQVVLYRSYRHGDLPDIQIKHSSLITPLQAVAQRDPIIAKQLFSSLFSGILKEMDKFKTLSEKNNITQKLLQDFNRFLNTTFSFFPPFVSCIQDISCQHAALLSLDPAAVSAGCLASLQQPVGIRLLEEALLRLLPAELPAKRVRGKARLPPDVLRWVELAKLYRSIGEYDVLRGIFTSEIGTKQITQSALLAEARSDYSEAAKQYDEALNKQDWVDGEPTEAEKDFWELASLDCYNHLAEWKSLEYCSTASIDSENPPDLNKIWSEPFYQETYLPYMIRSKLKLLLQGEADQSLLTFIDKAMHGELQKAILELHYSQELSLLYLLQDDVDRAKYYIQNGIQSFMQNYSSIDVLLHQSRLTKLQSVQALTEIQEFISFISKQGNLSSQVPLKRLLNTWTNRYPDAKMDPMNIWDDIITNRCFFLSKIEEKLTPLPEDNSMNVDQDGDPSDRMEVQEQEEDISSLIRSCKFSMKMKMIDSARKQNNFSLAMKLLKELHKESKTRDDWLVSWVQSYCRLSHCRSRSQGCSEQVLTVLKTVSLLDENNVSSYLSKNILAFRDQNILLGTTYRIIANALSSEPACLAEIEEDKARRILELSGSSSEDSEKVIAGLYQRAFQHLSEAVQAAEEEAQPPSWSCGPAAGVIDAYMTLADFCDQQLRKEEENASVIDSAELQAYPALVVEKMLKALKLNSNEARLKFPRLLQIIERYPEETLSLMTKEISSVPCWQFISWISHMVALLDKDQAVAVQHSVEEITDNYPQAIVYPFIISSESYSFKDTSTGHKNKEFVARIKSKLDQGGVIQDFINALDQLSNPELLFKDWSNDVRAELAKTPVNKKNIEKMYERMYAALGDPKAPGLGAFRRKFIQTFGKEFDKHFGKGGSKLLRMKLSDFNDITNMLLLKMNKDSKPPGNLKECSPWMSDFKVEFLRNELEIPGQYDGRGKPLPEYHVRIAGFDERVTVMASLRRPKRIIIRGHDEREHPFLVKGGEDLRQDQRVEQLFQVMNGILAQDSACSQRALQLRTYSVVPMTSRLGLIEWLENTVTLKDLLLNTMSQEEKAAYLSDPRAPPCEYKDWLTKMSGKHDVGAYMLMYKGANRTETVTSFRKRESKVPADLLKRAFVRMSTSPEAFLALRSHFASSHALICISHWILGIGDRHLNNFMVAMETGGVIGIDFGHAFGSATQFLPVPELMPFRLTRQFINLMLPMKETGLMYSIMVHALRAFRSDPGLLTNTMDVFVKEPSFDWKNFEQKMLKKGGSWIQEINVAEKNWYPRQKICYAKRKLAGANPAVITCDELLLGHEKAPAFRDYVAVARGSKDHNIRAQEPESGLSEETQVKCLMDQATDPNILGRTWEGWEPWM

For `C[C@H]1COCCN1c1nc(-c2ccc(NC(=O)NC3CC3)cc2)nc2c1CS(=O)(=O)C2(C)F` (stereo partly drawn) [Example 43, 1-cyclopropyl-3-(4-(7-fluoro-7-methyl-4-((S)-3-methylmorpholino)-6,6-dioxido-5,7-dihydrothieno[3,4-d]pyrimidin-2-yl)phenyl)urea], the IC50 [1] was > 10 µM, the IC50 (mTOR) was < 0.1 µM and the IC50 [2] was < 0.1 µM. The IC50 [3] was 1 µM.

With `CC[C@H]1COCCN1c1nc(-c2ccc(NC(=O)NC3CC3)cc2)nc2c1C(C)S(=O)(=O)C2` (stereo partly drawn) [Example 47, 1-cyclopropyl-3-(4-(4-((S)-3-ethylmorpholino)-5-methyl-6,6-dioxido-5,7-dihydrothieno[3,4-d]pyrimidin-2-yl)phenyl)urea] the IC50 [1] was > 10 µM, the IC50 (mTOR) was 0.1 to 1 µM and the IC50 [2] was < 0.1 µM. The IC50 [3] was 0.0794 µM.

`CC[C@H]1COCCN1c1nc(-c2ccc(NC(=O)NC3CC3)cc2)nc2c1CS(=O)(=O)C2(C)C` [Example 51, (S)-1-cyclopropyl-3-(4-(4-(3-ethylmorpholino)-7,7-dimethyl-6,6-dioxido-5,7-dihydrothieno[3,4-d]pyrimidin-2-yl)phenyl)urea] was tested, and the IC50 [1] was > 10 µM, the IC50 (mTOR) was < 0.1 µM and the IC50 [2] was < 0.1 µM. The IC50 [3] was 0.158 µM.

In the case of `CCNC(=O)Nc1ccc(-c2nc3c(c(N4CCOC[C@@H]4CC)n2)[C@@H](C)S(=O)(=O)C3)cc1` [Example 52, 1-ethyl-3-(4-((R)-4-((S)-3-ethylmorpholino)-5-methyl-6,6-dioxido-5,7-dihydrothieno[3,4-d]pyrimidin-2-yl)phenyl)urea], the IC50 [1] is reported as > 10 µM, the IC50 (mTOR) is reported as < 0.1 µM and the IC50 [2] is reported as < 0.1 µM. It also gave an IC50 [3] of 0.0316 µM.

For `CCNC(=O)Nc1ccc(-c2nc3c(c(N4CCOC[C@@H]4CC)n2)[C@H](C)S(=O)(=O)C3)cc1` [Example 53, 1-ethyl-3-(4-((S)-4-((S)-3-ethylmorpholino)-5-methyl-6,6-dioxido-5,7-dihydrothieno[3,4-d]pyrimidin-2-yl)phenyl)urea], the IC50 [1] was > 10 µM, the IC50 (mTOR) was < 0.1 µM and the IC50 [2] was < 0.1 µM. For the same compound, the IC50 [3] was 0.0631 µM.

With `CNC(=O)Nc1ccc(-c2nc3c(c(N4CCOC[C@@H]4C)n2)C(C)S(=O)(=O)C3)cc1` (stereo partly drawn) [Example 58, 1-methyl-3-(4-(5-methyl-4-((S)-3-methylmorpholino)-6,6-dioxido-5,7-dihydrothieno[3,4-d]pyrimidin-2-yl)phenyl)urea] the IC50 [1] was > 10 µM, the IC50 (mTOR) was < 0.1 µM and the IC50 [2] was < 0.1 µM. It also gave an IC50 [3] of 0.251 µM.

With `CC1(C)c2nc(-c3ccc(NC(=O)NC4CC4)cc3)nc(N3C4CCC3COC4)c2CS1(=O)=O` [Example 59, 1-(4-(4-(3-oxa-8-azabicyclo[3.2.1]octan-8-yl)-7,7-dimethyl-6,6-dioxido-5,7-dihydrothieno[3,4-d]pyrimidin-2-yl)phenyl)-3-cyclopropylurea] the IC50 [1] was > 10 µM, the IC50 (mTOR) was < 0.1 µM and the IC50 [2] was < 0.1 µM. For the same compound, the IC50 [3] was 0.1 µM.

In the case of `CCNC(=O)Nc1ccc(-c2nc(N3C4CCC3COC4)c3c(n2)C(C)(C)S(=O)(=O)C3)cc1` [Example 60, 1-(4-(4-(3-oxa-8-azabicyclo[3.2.1]octan-8-yl)-7,7-dimethyl-6,6-dioxido-5,7-dihydrothieno[3,4-d]pyrimidin-2-yl)phenyl)-3-ethylurea], the IC50 [1] is reported as > 10 µM, the IC50 (mTOR) is reported as < 0.1 µM and the IC50 [2] is reported as < 0.1 µM. The IC50 [3] was 0.2 µM.

With `C[C@H]1COCCN1c1nc(-c2ccc(NC(=O)NCCF)cc2)nc2c1CS(=O)(=O)C2(C)C` [Example 61, (S)-1-(4-(7,7-dimethyl-4-(3-methylmorpholino)-6,6-dioxido-5,7-dihydrothieno[3,4-d]pyrimidin-2-yl)phenyl)-3-(2-fluoroethyl)urea] the IC50 [1] was > 10 µM, the IC50 (mTOR) was < 0.1 µM and the IC50 [2] was < 0.1 µM. For the same compound, the IC50 [3] was 0.251 µM.

`CC[C@H]1COCCN1c1nc(-c2ccc(NC(=O)NC)c(F)c2)nc2c1CS(=O)(=O)C2(C)C` [Example 64, (S)-1-(4-(4-(3-ethylmorpholino)-7,7-dimethyl-6,6-dioxido-5,7-dihydrothieno[3,4-d]pyrimidin-2-yl)-2-fluorophenyl)-3-methylurea] was tested, and the IC50 [1] was > 10 µM, the IC50 (mTOR) was 0.1 to 1 µM and the IC50 [2] was < 0.1 µM. The IC50 [3] was 0.158 µM.

For `CNC(=O)Nc1ccc(-c2nc(N3CCOC[C@@H]3C)c3c(n2)C(C)(C)S(=O)(=O)C3)c(F)c1` [Example 66, (S)-1-(4-(7,7-dimethyl-4-(3-methylmorpholino)-6,6-dioxido-5,7-dihydrothieno[3,4-d]pyrimidin-2-yl)-3-fluorophenyl)-3-methylurea], the IC50 [1] was > 10 µM, the IC50 (mTOR) was < 0.1 µM and the IC50 [2] was < 0.1 µM. For the same compound, the IC50 [3] was 1 µM.

With `CCNC(=O)Nc1ccc(-c2nc3c(c(N4CCOC[C@@H]4C)n2)C(CC)S(=O)(=O)C3)cc1` (stereo partly drawn) [Example 67, 1-ethyl-3-(4-(5-ethyl-4-((S)-3-methylmorpholino)-6,6-dioxido-5,7-dihydrothieno[3,4-d]pyrimidin-2-yl)phenyl)urea] the IC50 [1] was > 10 µM, the IC50 (mTOR) was < 0.1 µM and the IC50 [2] was < 0.1 µM. It also gave an IC50 [3] of 0.316 µM.

With `C[C@H]1COCCN1c1nc(-c2ccc(NC(=O)NC3COC3)cc2)nc2c1CS(=O)(=O)C2(C)C` [Example 68, (S)-1-(4-(7,7-dimethyl-4-(3-methylmorpholino)-6,6-dioxido-5,7-dihydrothieno[3,4-d]pyrimidin-2-yl)phenyl)-3-(oxetan-3-yl)urea] the IC50 [1] was > 10 µM, the IC50 (mTOR) was 0.1 to 1 µM and the IC50 [2] was < 0.1 µM. It also gave an IC50 [3] of 0.316 µM.

`CCNC(=O)Nc1ccc(-c2nc(N3CCOC[C@@H]3C)c3c(n2)C(C)(C)S(=O)(=O)C3)c(F)c1` [Example 69, (S)-1-(4-(7,7-dimethyl-4-(3-methylmorpholino)-6,6-dioxido-5,7-dihydrothieno[3,4-d]pyrimidin-2-yl)-3-fluorophenyl)-3-ethylurea] was tested, and the IC50 [1] was > 10 µM, the IC50 (mTOR) was < 0.1 µM and the IC50 [2] was < 0.1 µM. For the same compound, the IC50 [3] was 0.126 µM.

`C[C@H]1COCCN1c1nc(-c2ccc(NC(=O)NC3CC3)cc2)nc2c1CS(=O)(=O)C(C)(C)C2` [Example 70, (S)-1-cyclopropyl-3-(4-(7,7-dimethyl-4-(3-methylmorpholino)-6,6-dioxido-7,8-dihydro-5H-thiopyrano[4,3-d]pyrimidin-2-yl)phenyl)urea] was tested, and the IC50 [1] was > 10 µM, the IC50 (mTOR) was < 0.1 µM and the IC50 [2] was < 0.1 µM. It also gave an IC50 [3] of 0.158 µM.

For `CC1Cc2nc(-c3ccc(NC(=O)NC4CC4)cc3)nc(N3CCOC[C@@H]3C)c2CS1(=O)=O` (stereo partly drawn) [Example 71, 1-cyclopropyl-3-(4-(7-methyl-4-((S)-3-methylmorpholino)-6,6-dioxido-7,8-dihydro-5H-thiopyrano[4,3-d]pyrimidin-2-yl)phenyl)urea], the IC50 [1] was > 10 µM, the IC50 (mTOR) was < 0.1 µM and the IC50 [2] was < 0.1 µM. For the same compound, the IC50 [3] was 0.794 µM.

With `CC1Cc2nc(-c3ccc(NC(=O)NC4CC4)cc3)nc(N3CCOC[C@@H]3C)c2C(C)S1(=O)=O` (stereo partly drawn) [Example 72, 1-cyclopropyl-3-(4-(5,7-dimethyl-4-((S)-3-methylmorpholino)-6,6-dioxido-7,8-dihydro-5H-thiopyrano[4,3-d]pyrimidin-2-yl)phenyl)urea] the IC50 [1] was > 10 µM, the IC50 (mTOR) was < 0.1 µM and the IC50 [2] was < 0.1 µM. The IC50 [3] was 0.398 µM.

For `CCNC(=O)Nc1ccc(-c2nc3c(c(N4CCOC[C@@H]4C)n2)CS(=O)(=O)C(C)(C)C3)cc1` [Example 73, (S)-1-(4-(7,7-dimethyl-4-(3-methylmorpholino)-6,6-dioxido-7,8-dihydro-5H-thiopyrano[4,3-d]pyrimidin-2-yl)phenyl)-3-ethylurea], the IC50 [1] was > 10 µM, the IC50 (mTOR) was < 0.1 µM and the IC50 [2] was < 0.1 µM. The IC50 [3] was 0.0631 µM.

`CC1c2c(nc(-c3ccc(NC(=O)NC4CC4)cc3)nc2N2CCOC[C@@H]2C)CCS1(=O)=O` (stereo partly drawn) [Example 74, 1-cyclopropyl-3-(4-(5-methyl-4-((S)-3-methylmorpholino)-6,6-dioxido-7,8-dihydro-5H-thiopyrano[4,3-d]pyrimidin-2-yl)phenyl)urea] was tested, and the IC50 [1] was > 10 µM, the IC50 (mTOR) was < 0.1 µM and the IC50 [2] was < 0.1 µM. For the same compound, the IC50 [3] was 0.501 µM.
